Each block holds one molecule with its values, some of them ahead of it. Calls of active or inactive are those of the source. The calls are words filed in the database; no cut-off is given here.
Assays:
[1] = Metabolic stability in human liver microsomes assessed as apparent intrinsic clearance at 1 uM measured upto 60 mins in presence of NADPH by LC-MS/MS analysis; format: ADME, Microsome; conditions: read-out: CLH
[2] = Apparent permeability of compound in dog RRCK cells measured after 1.5 hrs by LC-MS/MS analysis; conditions: MDCK
[3] = tested on: MIA PaCa-2; assay: Antiproliferative activity against human MIA PaCa-2 cells incubated for 6 days by CyQUANT cell proliferation assay; format: functional, cell-based; conditions: MIA PaCa-2, 144 h
[4] = target: Cytochrome P450 3A4 (Homo sapiens, UniProt P08684); assay: Inhibition of CYP3A4 in human liver microsomes using midazolam as substrate incubated for 4 mins by LC-MS/SM analysis
Chain of Cytochrome P450 3A4 (P08684 whole entry): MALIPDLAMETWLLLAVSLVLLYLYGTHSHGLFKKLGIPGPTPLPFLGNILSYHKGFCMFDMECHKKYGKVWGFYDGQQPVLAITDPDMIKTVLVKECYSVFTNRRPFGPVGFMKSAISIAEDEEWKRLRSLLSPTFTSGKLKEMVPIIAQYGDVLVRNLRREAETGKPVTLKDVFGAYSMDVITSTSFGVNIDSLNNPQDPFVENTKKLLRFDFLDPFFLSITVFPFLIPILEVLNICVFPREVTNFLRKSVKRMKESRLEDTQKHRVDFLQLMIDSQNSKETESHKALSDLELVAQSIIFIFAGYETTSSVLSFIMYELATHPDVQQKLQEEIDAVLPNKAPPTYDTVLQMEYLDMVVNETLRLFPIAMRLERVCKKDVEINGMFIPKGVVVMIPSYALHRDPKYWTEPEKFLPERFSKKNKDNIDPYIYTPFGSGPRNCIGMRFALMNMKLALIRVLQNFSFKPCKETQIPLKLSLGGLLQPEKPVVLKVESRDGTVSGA

[5] = Clearance in mouse blood at 30 mg/kg, po measured upto 24 hrs by LC-MS/MS analysis; format: ADME, organism-based; conditions: whole blood
[6] = Volume of distribution at steady state in mouse at 30 mg/kg, po measured upto 24 hrs by LC-MS/MS analysis; format: ADME, organism-based; conditions: in vivo
[7] = Bioavailability in mouse at 30 mg/kg, po measured upto 24 hrs by LC-MS/MS analysis; format: ADME, organism-based; conditions: in vivo
[8] = Half-life in mouse at 30 mg/kg, po measured upto 24 hrs by LC-MS/MS analysis; format: ADME, organism-based; conditions: in vivo
[9] = tested on: MIA PaCa-2; assay: Antitumor activity against human MIA PaCa-2 cells xenografted in NSG mouse assessed as tumor growth inhibition at 15 mg/kg, po bid measured after 24 days by caliper method; format: functional; conditions: MIA PaCa-2, 576 h, time 24 day, read-out: TGI
[10] = Toxicity in NSG mouse xenografted in with human MIA PaCa-2 cells assessed as body weight loss at 10 to 15 mg/kg, po bid […]; format: organism-based; conditions: in vivo, dose 10-15 mg/kg
[11] = tested on: MIA PaCa-2; assay: Antitumor activity against human MIA PaCa-2 cells xenografted in NSG mouse assessed as time duration of coverage of MIA PaCa-2 IC50 in plasma at 15 mg/kg, po bid; format: functional
[12] = tested on: MIA PaCa-2; assay: Antitumor activity against human MIA PaCa-2 cells xenografted in NSG mouse assessed as tumor stasis at 15 mg/kg, po BID measured after 24 days; format: functional, organism-based; conditions: time 24.0 day
[13] = tested on: MIA PaCa-2; assay: Antitumor activity against human MIA PaCa-2 cells xenografted in NSG mouse assessed as tumor growth inhibition at 30 mg/kg, po qd measured after 24 days by caliper method; format: functional; conditions: MIA PaCa-2, 576 h, time 24 day, read-out: TGI
[14] = tested on: MIA PaCa-2; assay: Antitumor activity against human MIA PaCa-2 cells xenografted in po dosed NSG mouse assessed as reduction in tumor volume measured after 24 days by caliper method; format: functional, organism-based; conditions: time 24.0 day
[15] = tested on: MIA PaCa-2; assay: Antitumor activity against human MIA PaCa-2 cells xenografted in NSG mouse assessed as time duration of coverage of MIA PaCa-2 IC50 in plasma at 30 mg/kg, po qd; format: functional
[16] = tested on: MIA PaCa-2; assay: Antitumor activity against human MIA PaCa-2 cells xenografted in NSG mouse assessed as time duration of coverage of MIA PaCa-2 IC90 in plasma at 10 mg/kg, po bid; format: functional
[17] = tested on: MIA PaCa-2; assay: Antitumor activity against human MIA PaCa-2 cells xenografted in NSG mouse assessed as tumor growth inhibition at 10 mg/kg, po bid measured after 24 days by caliper method; format: functional; conditions: MIA PaCa-2, 576 h, time 24 day, read-out: TGI
[18] = tested on: MIA PaCa-2; assay: Antitumor activity against human MIA PaCa-2 cells xenografted in NSG mouse assessed as tumor stasis at 30 mg/kg, po qd measured after 24 days; format: functional, organism-based; conditions: time 24.0 day
[19] = Toxicity in NSG mouse xenografted in with human MIA PaCa-2 cells assessed as body weight loss at 15 to 30 mg/kg, po qd […]; format: organism-based; conditions: in vivo, dose 15-30 mg/kg
[20] = tested on: MIA PaCa-2; assay: Antitumor activity against human MIA PaCa-2 cells xenografted in NSG mouse assessed as time duration of coverage of MIA PaCa-2 IC50 in plasma at 10 mg/kg, po bid; format: functional
[21] = tested on: MIA PaCa-2; assay: Antitumor activity against human MIA PaCa-2 cells xenografted in NSG mouse assessed as time duration of coverage of MIA PaCa-2 IC90 in plasma at 30 mg/kg, po qd; format: functional
[22] = tested on: MIA PaCa-2; assay: Antitumor activity against human MIA PaCa-2 cells xenografted in NSG mouse assessed as time duration of coverage of MIA PaCa-2 IC90 in plasma at 15 mg/kg, po bid; format: functional
[23] = tested on: MIA PaCa-2; assay: Antitumor activity against human MIA PaCa-2 cells xenografted in NSG mouse assessed as time duration of coverage of MIA PaCa-2 IC50 in plasma at 15 mg/kg, po qd; format: functional
[24] = tested on: MIA PaCa-2; assay: Antitumor activity against human MIA PaCa-2 cells xenografted in NSG mouse assessed as time duration of coverage of MIA PaCa-2 IC90 in plasma at 15 mg/kg, po qd; format: functional
[25] = tested on: MIA PaCa-2; assay: Antitumor activity against human MIA PaCa-2 cells xenografted in NSG mouse assessed as tumor growth inhibition at 15 mg/kg, po qd measured after 24 days by caliper method; format: functional; conditions: MIA PaCa-2, 576 h, time 24 day, read-out: TGI

SMILES: Cc1cn(C)nc1Nc1cc2cc(-c3cnccn3)nc(N)c2cn1
microsomal CLint at 1 µM [1]: 21.2 µL/min/mg

SMILES: Cn1nncc1-c1cc2cc(Nc3nn(C)c4c3[C@@H]3CC[C@H]4N(C4CCC4)C3)ncc2c(N)n1
Papp at 1.5 h [2]: 5.2 ×10⁻⁶ cm/s
microsomal CLint at 1 µM [1]: 201 µL/min/mg

SMILES: CCC(N)(CC)c1ccnc(Nc2cc3cc(N4CCOC4=O)nc(N)c3cn2)c1
IC50 [3]: 12.8 nM
Papp at 1.5 h [2]: 12.3 ×10⁻⁶ cm/s
microsomal CLint at 1 µM [1]: 19.4 µL/min/mg

SMILES: Cn1nncc1-c1cc2cc(Nc3cc(C(C)(C)O)ccn3)ncc2c(N)n1
Papp at 1.5 h [2]: 13.3 ×10⁻⁶ cm/s
microsomal CLint at 1 µM [1]: < 7 µL/min/mg

SMILES: Cc1cn(C)nc1Nc1cc2cc(C3CCc4nccn43)nc(N)c2cn1 (centres undefined)
IC50 [4]: > 22400 nM
Papp at 1.5 h [2]: 44.4 ×10⁻⁶ cm/s
microsomal CLint at 1 µM [1]: 28.6 µL/min/mg

SMILES: Cc1cn(C)nc1Nc1cc2cc(-c3cncn3C)nc(N)c2cn1
microsomal CLint at 1 µM [1]: 8.2 µL/min/mg

SMILES: Cc1cn(C)nc1Nc1cc2cc(-c3sncc3C)nc(N)c2cn1
microsomal CLint at 1 µM [1]: 189 µL/min/mg

SMILES: CC[C@](C)(N)c1ccnc(Nc2cc3cc(-c4cnnn4C)nc(N)c3cn2)c1
CL/F [5]: 124 mL/min/kg
IC50 [3]: 14.5 nM
Papp at 1.5 h [2]: 5.6 ×10⁻⁶ cm/s
Vdss [6]: 3.2 L/kg
bioavailability [7]: 7%
half-life [8]: 0.6 h
microsomal CLint at 1 µM [1]: < 7 µL/min/mg

More lines, main results first:

Papp at 1.5 h [2]: 1.7 ×10⁻⁶ cm/s
microsomal CLint at 1 µM [1]: < 7 µL/min/mg
SMILES: Cn1nncc1-c1cc2cc(Nc3cc(C(C)(C)N)ccn3)ncc2c(N)n1

CL/F [5]: 49.4 mL/min/kg
IC50 [3]: 6.5 nM
Papp at 1.5 h [2]: 6.4 ×10⁻⁶ cm/s
Vdss [6]: 2.8 L/kg
bioavailability [7]: 3%
half-life [8]: 3.8 h
microsomal CLint at 1 µM [1]: < 7 µL/min/mg
SMILES: CC[C@@](C)(N)c1ccnc(Nc2cc3cc(-c4cnnn4C)nc(N)c3cn2)c1

IC50 [4]: 14500 nM
Papp at 1.5 h [2]: 10.8 ×10⁻⁶ cm/s
microsomal CLint at 1 µM [1]: 31.8 µL/min/mg
SMILES: Cc1cn(C)nc1Nc1cc2cc(-c3cn[nH]c3C)nc(N)c2cn1

microsomal CLint at 1 µM [1]: 15.3 µL/min/mg
SMILES: Cc1cn(C)nc1Nc1cc2cc(-c3cnnn3C)nc(N)c2cn1

CL/F [5]: 109 mL/min/kg
IC50 [3]: 3 nM
Papp at 1.5 h [2]: 11.1 ×10⁻⁶ cm/s
T>IC50 [11]: 24 h
Vdss [6]: 4.9 L/kg
T>IC50 [15]: 24 h
T>IC90 [16]: 16 h
bioavailability [7]: 96%
half-life [8]: 12 h
microsomal CLint at 1 µM [1]: 41.1 µL/min/mg
T>IC50 [20]: 21 h
T>IC90 [21]: 16 h
T>IC90 [22]: 19 h
T>IC50 [23]: 15 h
T>IC90 [24]: 9 h
SMILES: CCC(N)(CC)c1ccnc(Nc2cc3cc(-c4cnnn4C)nc(N)c3cn2)c1
inhibition in vivo at 15 mg/kg [9]: 103%
Activity [10]: Non-toxic
Activity [12]: Active
inhibition in vivo at 30 mg/kg [13]: 106%
Activity [14]: Dose-dependent-effect
inhibition in vivo at 10 mg/kg [17]: 58%
Activity [18]: Active
Activity [19]: Non-toxic
inhibition in vivo at 15 mg/kg [25]: 35%

Papp at 1.5 h [2]: 5.2 ×10⁻⁶ cm/s
microsomal CLint at 1 µM [1]: 76.8 µL/min/mg
SMILES: CCn1nc(Nc2cc3cc(-c4cnnn4C)nc(N)c3cn2)c2c1[C@@H]1CC[C@H]2C(=O)N1C1CCC1
